Experimental data taken from ChEMBL document CHEMBL1156236, “Trypanoside, anti-tuberculosis, leishmanicidal, and cytotoxic activities of tetrahydrobenzothienopyrimidines” (Bioorg Med Chem, 2010).

Tests used:
SW-620 = test: Cytotoxicity against human SW620 cells; format: functional
MDA-MB-435 = test: Cytotoxicity against human MDA-MB-435 cells; format: functional
MOLT-4 = test: Cytotoxicity against human MOLT4 cells; format: functional
Leishmania amazonensis [1] = test: Antileishmanial activity against Leishmania amazonensis MHOM/BR/76/LTB-012 amastigotes infected BALB/c mouse macrophages after 48 hrs by MTT assay; format: functional, organism-based; settings: MHOM/BR/76/LTB-012, 48 h
NCI-H322M = test: Cytotoxicity against human NCI-H322M cells; format: functional
SK-OV-3 = test: Cytotoxicity against human SKOV3 cells; format: functional
NCI/ADR-RES = test: Cytotoxicity against human NCI/ADR-RES cells; format: functional
M14 = test: Cytotoxicity against human M14 cells; format: functional
Leishmania braziliensis = test: Antileishmanial activity against Leishmania braziliensis MHOM/PE/PER006 promastigote infected BALB/c mouse macrophages after 48 hrs by Giemsa staining method; format: functional, organism-based; settings: MHOM/PE/PER006, 48 h
NCI-H226 = test: Cytotoxicity against human NCI-H226 cells; format: functional
HCT-15 = test: Cytotoxicity against human HCT15 cells; format: functional
DU-145 = test: Cytotoxicity against human DU145 cells; format: functional
[2] = Cytotoxicity against BALB/c mouse macrophages after 48 hrs by trypan blue dye exclusion method; format: cell-based; settings: Macrophage
Leishmania peruviana = test: Antileishmanial activity against Leishmania peruviana MHOM/PE/LCA08 promastigote infected BALB/c mouse macrophages after 48 hrs by Giemsa staining method; format: functional, organism-based; settings: MHOM/PE/LCA08, 48 h
EKVX = test: Cytotoxicity against human EKVX cells; format: functional
IGROV-1 = test: Cytotoxicity against human IGROV1 cells; format: functional
Leishmania amazonensis [3] = test: Antileishmanial activity against Leishmania amazonensis Lma CL1 amastigotes infected BALB/c mouse macrophages after 48 hrs by Giemsa staining method; format: functional, organism-based; settings: Lma CL1, 48 h
[4] = Selectivity index, ratio of IC50 for BALB/c mouse macrophages to IC50 for Leishmania amazonensis MHOM/BR/76/LTB-012
OVCAR-3 = test: Cytotoxicity against human OVCAR-3 cells; format: functional
OVCAR-8 = test: Cytotoxicity against human OVCAR8 cells; format: functional
SK-MEL-2 = test: Cytotoxicity against human SK-MEL-2 cells; format: functional
[5] = Cytotoxicity against BALB mouse 3T3 cells; format: cell-based; settings: BALB 3T3 cells
OVCAR-5 = test: Cytotoxicity against human OVCAR5 cells; format: functional
HCT-116 = test: Cytotoxicity against human HCT116 cells; format: functional
MCF7 = test: Cytotoxicity against human MCF7 cells; format: functional
[6] = read-out: LC50 (the source's name)

**Q.** Which GI50 (SW-620) does the source give for `C(=N\Nc1ncnc2sc3c(c12)CCCC3)/c1ccccn1` here?
**A.** 0.561 µM

**Q.** What about the TGI (SW-620) of the same molecule?
**A.** 17.9 µM

**Q.** What about the CC50 (SW-620; [6]) of the same molecule?
**A.** 59.5 µM

**Q.** What about the GI50 (MDA-MB-435) of the same molecule?
**A.** 0.477 µM

**Q.** What about the TGI (MDA-MB-435) of the same molecule?
**A.** 25.1 µM

**Q.** What about the CC50 (MDA-MB-435; [6]) of the same molecule?
**A.** > 100 µM

**Q.** And the GI50 (MOLT-4)?
**A.** 0.261 µM

**Q.** What about the TGI (MOLT-4) of the same molecule?
**A.** 0.774 µM

**Q.** And the CC50 (MOLT-4; [6])?
**A.** > 100 µM

**Q.** And the IC50 (Leishmania amazonensis [1])?
**A.** 0.5 µM

**Q.** And the GI50 (NCI-H322M)?
**A.** 0.216 µM

**Q.** And the TGI (NCI-H322M)?
**A.** 35 µM

**Q.** And the CC50 (NCI-H322M; [6])?
**A.** > 100 µM

**Q.** What about the GI50 (SK-OV-3) of the same molecule?
**A.** 0.41 µM

**Q.** What about the TGI (SK-OV-3) of the same molecule?
**A.** 29.2 µM

**Q.** And the CC50 (SK-OV-3; [6])?
**A.** > 0.1 µM

**Q.** And the GI50 (NCI/ADR-RES)?
**A.** 0.427 µM

**Q.** And the TGI (NCI/ADR-RES)?
**A.** 58.1 µM

**Q.** And the CC50 (NCI/ADR-RES; [6])?
**A.** > 0.1 µM

**Q.** What about the GI50 (M14) of the same molecule?
**A.** 0.25 µM

**Q.** What about the TGI (M14) of the same molecule?
**A.** 0.599 µM

**Q.** And the CC50 (M14; [6])?
**A.** 33.4 µM

**Q.** What about the IC50 (Leishmania braziliensis) of the same molecule?
**A.** 0.6 µM

**Q.** What about the GI50 (NCI-H226) of the same molecule?
**A.** 0.385 µM

**Q.** And the TGI (NCI-H226)?
**A.** 16.2 µM

**Q.** And the CC50 (NCI-H226; [6])?
**A.** > 100 µM

**Q.** And the GI50 (HCT-15)?
**A.** 0.45 µM

**Q.** And the TGI (HCT-15)?
**A.** 27 µM

**Q.** What about the CC50 (HCT-15; [6]) of the same molecule?
**A.** > 100 µM

**Q.** And the GI50 (DU-145)?
**A.** 0.37 µM

**Q.** What about the LC50 (DU-145) of the same molecule?
**A.** 51.6 µM

**Q.** And the TGI (DU-145)?
**A.** 15.1 µM

**Q.** And the IC50 [2]?
**A.** 6.5 µM

**Q.** And the IC50 (Leishmania peruviana)?
**A.** 0.7 µM

**Q.** And the GI50 (EKVX)?
**A.** 0.317 µM

**Q.** What about the TGI (EKVX) of the same molecule?
**A.** 20.5 µM

**Q.** What about the CC50 (EKVX; [6]) of the same molecule?
**A.** > 100 µM

**Q.** What about the GI50 (IGROV-1) of the same molecule?
**A.** 0.45 µM

**Q.** And the TGI (IGROV-1)?
**A.** 28.9 µM

**Q.** What about the CC50 (IGROV-1; [6]) of the same molecule?
**A.** > 100 µM

**Q.** What about the IC50 (Leishmania amazonensis [3]) of the same molecule?
**A.** > 2 µM

**Q.** And the “Ratio IC50” value [4]?
**A.** 13

**Q.** What about the GI50 (OVCAR-3) of the same molecule?
**A.** 0.109 µM

**Q.** What about the TGI (OVCAR-3) of the same molecule?
**A.** 14.5 µM

**Q.** And the CC50 (OVCAR-3; [6])?
**A.** 43.9 µM

**Q.** What about the GI50 (OVCAR-8) of the same molecule?
**A.** 0.481 µM

**Q.** What about the TGI (OVCAR-8) of the same molecule?
**A.** > 1 µM

**Q.** What about the CC50 (OVCAR-8; [6]) of the same molecule?
**A.** > 0.1 µM

**Q.** What about the GI50 (SK-MEL-2) of the same molecule?
**A.** 7.51 µM

**Q.** What about the TGI (SK-MEL-2) of the same molecule?
**A.** 25.5 µM

**Q.** And the CC50 (SK-MEL-2; [6])?
**A.** 67.8 µM

**Q.** What about the GI50 [5] of the same molecule?
**A.** 0.04 µM

**Q.** And the GI50 (OVCAR-5)?
**A.** 0.823 µM

**Q.** What about the TGI (OVCAR-5) of the same molecule?
**A.** 31.4 µM

**Q.** What about the CC50 (OVCAR-5; [6]) of the same molecule?
**A.** > 0.1 µM

**Q.** What about the GI50 (HCT-116) of the same molecule?
**A.** 0.166 µM

**Q.** And the TGI (HCT-116)?
**A.** 14.2 µM

**Q.** And the CC50 (HCT-116; [6])?
**A.** 67.4 µM

**Q.** What about the GI50 (MCF7) of the same molecule?
**A.** 0.09 µM

**Q.** What about the TGI (MCF7) of the same molecule?
**A.** 15.3 µM

**Q.** And the CC50 (MCF7; [6])?
**A.** 80 µM
